Measured values: patent US20260365670A1, “EGFR INHIBITORS AND USES THEREOF” (DIZAL (JIANGSU) PHARMACEUTICAL CO., LTD., priority 2022, published 2026)
Read-outs that look alike come from different tables or passages of the source.

Key:
[1] = target: T1, EGFR L858R (Homo sapiens, UniProt P00533, L858R); test: Inhibition of EGFR L858R biochemical enzymatic activity (HTRF); details: 1 mM ATP
T1 construct: purchased Carna Bio
In short: (§1)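 In a buffer with 5 mM MgCl2, 1 mM MnCl2, 1 mM DTT and 0.01% CHAPS, enzyme turnover of 1 μM biotinylated TK substrate at 1 mM ATP is followed by HTRF after 1 h at room temperature. IC50 is obtained by a four-parameter fit.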

[2] = target: T2, EGFR (d746-750 C797S) (Homo sapiens, UniProt P00533, C797S/DEL746-750); test: Inhibition of EGFR (d746-750 C797S) biochemical enzymatic activity (HTRF); details: 1 mM ATP
T2 construct: purchased signalchem
In short: as §1

[3] = target: T3, EGFR[T790M/C797S/L858R] (Homo sapiens, UniProt P00533, C797S/L858R/T790M); test: Inhibition of EGFR[T790M/C797S/L858R] biochemical enzymatic activity (HTRF); details: 1 mM ATP
T3 construct: purchased Carna Bio
In short: as §1

[4] = target: T4, EGFR wild type (Homo sapiens, UniProt P00533); test: Inhibition of EGFR wild type biochemical enzymatic activity (HTRF); details: 1 mM ATP
T4 construct: purchased Carna Bio
In short: as §1

[5] = target: T5, EGFR Exon19Del/T790M (Homo sapiens, UniProt P00533, DEL746-750/T790M); test: Inhibition of EGFR Exon19Del/T790M biochemical enzymatic activity (HTRF); details: 1 mM ATP
T5 construct: purchased Carna Bio
In short: as §1

[6] = target: T6, EGFR Exon19Del (Homo sapiens, UniProt P00533, DEL746-750); test: Inhibition of EGFR Exon19Del biochemical enzymatic activity (HTRF); details: read-out: IC50 @Del19
T6 construct: purchased Carna Bio
In short: as §1

[7] = target: T7, EGFR (C797S L858R) (Homo sapiens, UniProt P00533, C797S/L858R); test: Inhibition of EGFR (C797S L858R) biochemical enzymatic activity (HTRF); details: 1 mM ATP
T7 construct: purchased signalchem
In short: as §1

[8] = target: T8, EGFR L858R/T790M (Homo sapiens, UniProt P00533, L858R/T790M); test: Inhibition of EGFR L858R/T790M biochemical enzymatic activity (HTRF); details: 1 mM ATP
T8 construct: purchased Carna Bio
In short: as §1

[9] = test system: A-431; test: Cell proliferation assay, A-431 cells (GI50, Table 6); format: cell-based
Description: [Worded in the source for another cell line; this cell line is reported under the same test.] Ba/F3 cells expressing EGFR mutations were seeded in 384-well plates at 5000 cells/well in RPMI1640 medium containing […]. PC-9 at 500 cells/well was seeded into 384-well plates in RPMI1640 medium with 10% FBS. After overnight incubation, the assay plates were dosed with compounds at a series of concentrations. Alongside dosing the assay plates, the day 0 plate was processed using CellTiter-Glo® Luminescent Cell Viability Assay (Promega) to measure the number of viable cells (G0). The assay plates were further incubated for 72 hours and the number of viable cells (G3) was measured. The percentage of proliferation was calculated as: […]=100×(G3 value of sample well−G0 value)/(G3 value of DMSO control−G0 value). The concentration of compound producing 50% proliferation inhibition (GI50) was further calculated in best-fit curves using XLFit software. N/A=not available.

[10] = test system: PC-9; test: Cell proliferation assay, PC-9 cells (CellTiter-Glo, 72 hours); format: cell-based; details: PC9 cells, read-out: GI50 PC9
In short: (§2)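 In RPMI1640 medium (PC-9 with 10% FBS), each cell line was seeded at its own density: Ba/F3 5000 and PC-9 500 per well. A compound series was added the next day, with a time-zero viability plate read in parallel. Percent proliferation was subtracted for G0 and referenced to DMSO, and GI50 was derived by curve fitting.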

[11] = test system: Ba/F3 cells expressing EGFR mutations; test: Cell proliferation assay, Ba/F3 cells expressing EGFR mutations (CellTiter-Glo, 72 hours); format: cell-based
In short: as §2

[12] = target: T9, EGFR[T790M/C797S/d746-750] (Homo sapiens, UniProt P00533, C797S/DEL746-750/T790M); test: Inhibition of EGFR[T790M/C797S/d746-750] biochemical enzymatic activity (HTRF)
T9 construct: purchased Carna Bio
In short: as §1

[13] = 1 h at room temperature, read-out: IC50 @L858R
[14] = EGFR (d746-750 C797S), 1 h at room temperature, read-out: IC50 @Del19-C797S
[15] = EGFR[T790M/C797S/L858R], 1 h at room temperature, read-out: IC50 @T790M- C797S - L858R
[16] = EGFR wild type, 1 h at room temperature, read-out: IC50 @WT
[17] = EGFR Exon19Del/T790M, 1 h at room temperature, read-out: IC50 @Del19-T790M
[18] = EGFR Exon19Del, 1 mM ATP, 1 h at room temperature
[19] = EGFR (C797S L858R), 1 h at room temperature, read-out: IC50 @L858-C797S
[20] = EGFR L858R/T790M, 1 h at room temperature, read-out: IC50 @L858R-T790M
[21] = BaF3 cells, EGFR DEL19 - C797S, read-out: GI50 DEL19 - C797S/BaF3
[22] = BaF3 cells, EGFR DEL19 - T790-C797S, read-out: GI50 DEL19 - T790-C797S/BaF3
[23] = BaF3 cells, EGFR L858R - C797S, read-out: GI50 L858R - C797S/BaF3
[24] = BaF3 cells, EGFR L858R - T790-C797S, read-out: GI50 L858R - T790-C797S/BaF3
[25] = BaF3 cells, EGFR L858R - T790M, read-out: GI50 L858R - T790M/BaF3
[26] = BaF3 cells, EGFR L858R, read-out: GI50 L858R/BaF3
[27] = EGFR DEL19 - T790M, read-out: GI50 DEL19 - T790M
[28] = EGFR[T790M/C797S/d746-750], 1 mM ATP, 1 h at room temperature, read-out: IC50 @T790M - C797S - Del19
[29] = Homo sapiens, A-431, A-431 cells
[30] = Mus musculus, BaF3, 72 h, BaF3 cells, EGFR DEL19 - C797S, read-out: GI50 DEL19 - C797S/BaF3
[31] = Mus musculus, BaF3, 72 h, BaF3 cells, EGFR DEL19 - T790-C797S, read-out: GI50 DEL19 - T790-C797S/BaF3
[32] = Mus musculus, BaF3, 72 h, BaF3 cells, EGFR L858R - C797S, read-out: GI50 L858R - C797S/BaF3
[33] = Mus musculus, BaF3, 72 h, BaF3 cells, EGFR L858R - T790-C797S, read-out: GI50 L858R - T790-C797S/BaF3
[34] = Mus musculus, BaF3, 72 h, BaF3 cells, EGFR L858R - T790M, read-out: GI50 L858R - T790M/BaF3
[35] = Mus musculus, BaF3, 72 h, BaF3 cells, EGFR L858R, read-out: GI50 L858R/BaF3
[36] = Mus musculus, BaF3, 72 h, EGFR DEL19 - T790M, read-out: GI50 DEL19 - T790M

T7 sequence (P00533 25-1210 C797S/L858R): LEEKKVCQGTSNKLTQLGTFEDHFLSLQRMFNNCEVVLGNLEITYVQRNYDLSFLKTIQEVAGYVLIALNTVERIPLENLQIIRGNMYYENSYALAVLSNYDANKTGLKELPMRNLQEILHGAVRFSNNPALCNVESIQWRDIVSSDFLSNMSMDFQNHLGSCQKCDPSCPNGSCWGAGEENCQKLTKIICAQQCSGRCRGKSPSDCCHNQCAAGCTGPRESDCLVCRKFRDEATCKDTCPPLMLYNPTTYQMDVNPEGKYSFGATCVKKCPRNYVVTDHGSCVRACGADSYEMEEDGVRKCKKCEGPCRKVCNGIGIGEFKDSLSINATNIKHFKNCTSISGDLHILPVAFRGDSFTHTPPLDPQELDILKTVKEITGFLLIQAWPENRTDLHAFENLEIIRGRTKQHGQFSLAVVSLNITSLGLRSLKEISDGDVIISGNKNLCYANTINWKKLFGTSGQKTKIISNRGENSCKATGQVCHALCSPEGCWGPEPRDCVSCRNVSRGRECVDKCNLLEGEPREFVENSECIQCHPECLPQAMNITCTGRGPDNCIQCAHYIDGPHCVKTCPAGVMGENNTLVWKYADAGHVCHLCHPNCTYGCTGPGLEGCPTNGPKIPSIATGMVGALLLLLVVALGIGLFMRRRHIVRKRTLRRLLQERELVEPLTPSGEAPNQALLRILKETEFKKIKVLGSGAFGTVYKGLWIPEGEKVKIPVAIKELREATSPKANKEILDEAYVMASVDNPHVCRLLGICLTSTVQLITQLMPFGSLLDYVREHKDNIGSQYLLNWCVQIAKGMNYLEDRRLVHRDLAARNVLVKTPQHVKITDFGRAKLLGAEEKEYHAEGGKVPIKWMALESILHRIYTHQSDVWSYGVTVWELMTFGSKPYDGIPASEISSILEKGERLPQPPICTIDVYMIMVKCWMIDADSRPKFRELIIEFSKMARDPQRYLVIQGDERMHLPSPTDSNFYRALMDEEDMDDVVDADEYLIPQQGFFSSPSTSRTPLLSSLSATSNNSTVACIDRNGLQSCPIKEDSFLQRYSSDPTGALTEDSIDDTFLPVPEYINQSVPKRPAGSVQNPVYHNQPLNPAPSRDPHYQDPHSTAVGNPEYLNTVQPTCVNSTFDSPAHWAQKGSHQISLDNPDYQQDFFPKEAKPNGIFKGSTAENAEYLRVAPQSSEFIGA
T3 sequence (P00533 25-1210 T790M/C797S/L858R): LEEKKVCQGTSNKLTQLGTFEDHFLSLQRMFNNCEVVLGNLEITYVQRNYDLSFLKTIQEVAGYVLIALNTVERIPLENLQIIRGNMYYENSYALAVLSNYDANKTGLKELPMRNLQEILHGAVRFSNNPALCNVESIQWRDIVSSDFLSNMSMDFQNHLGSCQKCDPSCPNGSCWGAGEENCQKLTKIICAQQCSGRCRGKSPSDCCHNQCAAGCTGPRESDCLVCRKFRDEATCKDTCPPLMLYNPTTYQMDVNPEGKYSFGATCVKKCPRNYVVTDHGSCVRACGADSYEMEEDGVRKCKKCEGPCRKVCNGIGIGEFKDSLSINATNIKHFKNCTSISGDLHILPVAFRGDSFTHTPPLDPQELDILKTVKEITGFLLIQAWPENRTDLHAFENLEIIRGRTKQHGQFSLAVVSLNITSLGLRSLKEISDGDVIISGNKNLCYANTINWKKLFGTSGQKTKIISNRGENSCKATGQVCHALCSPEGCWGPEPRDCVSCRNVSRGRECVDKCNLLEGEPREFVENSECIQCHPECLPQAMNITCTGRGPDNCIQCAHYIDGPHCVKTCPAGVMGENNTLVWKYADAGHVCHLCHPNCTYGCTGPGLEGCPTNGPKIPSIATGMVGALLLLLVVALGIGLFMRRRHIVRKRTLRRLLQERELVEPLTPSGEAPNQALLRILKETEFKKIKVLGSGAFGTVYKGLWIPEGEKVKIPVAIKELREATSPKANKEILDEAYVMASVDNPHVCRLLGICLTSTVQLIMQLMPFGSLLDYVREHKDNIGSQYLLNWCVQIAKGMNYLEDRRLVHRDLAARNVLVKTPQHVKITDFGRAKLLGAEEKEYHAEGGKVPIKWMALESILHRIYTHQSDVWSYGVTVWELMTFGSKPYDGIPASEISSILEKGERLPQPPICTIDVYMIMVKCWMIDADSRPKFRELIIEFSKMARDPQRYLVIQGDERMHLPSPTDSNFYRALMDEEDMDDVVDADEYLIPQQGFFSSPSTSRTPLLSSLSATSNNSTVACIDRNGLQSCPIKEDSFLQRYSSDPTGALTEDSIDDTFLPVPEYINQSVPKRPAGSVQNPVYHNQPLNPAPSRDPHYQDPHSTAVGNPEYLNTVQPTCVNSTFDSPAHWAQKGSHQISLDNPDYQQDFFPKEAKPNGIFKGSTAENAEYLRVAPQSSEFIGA
T6 sequence (P00533 with tags, fused parts or gaps DEL746-750 limits assumed): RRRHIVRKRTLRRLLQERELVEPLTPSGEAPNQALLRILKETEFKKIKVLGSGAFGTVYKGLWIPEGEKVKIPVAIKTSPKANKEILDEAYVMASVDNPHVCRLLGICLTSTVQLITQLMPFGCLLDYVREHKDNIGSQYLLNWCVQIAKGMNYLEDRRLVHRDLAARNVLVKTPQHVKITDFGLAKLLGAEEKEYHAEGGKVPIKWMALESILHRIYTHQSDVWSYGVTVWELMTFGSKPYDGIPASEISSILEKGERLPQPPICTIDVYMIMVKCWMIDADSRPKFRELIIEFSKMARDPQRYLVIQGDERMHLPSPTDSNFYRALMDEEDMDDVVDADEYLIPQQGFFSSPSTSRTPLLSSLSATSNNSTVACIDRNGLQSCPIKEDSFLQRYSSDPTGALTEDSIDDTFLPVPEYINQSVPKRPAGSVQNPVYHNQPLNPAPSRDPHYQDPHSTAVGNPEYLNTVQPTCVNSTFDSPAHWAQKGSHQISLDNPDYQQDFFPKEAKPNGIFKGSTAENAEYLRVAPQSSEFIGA
T2 sequence (P00533 with tags, fused parts or gaps DEL746-750/C797S limits assumed): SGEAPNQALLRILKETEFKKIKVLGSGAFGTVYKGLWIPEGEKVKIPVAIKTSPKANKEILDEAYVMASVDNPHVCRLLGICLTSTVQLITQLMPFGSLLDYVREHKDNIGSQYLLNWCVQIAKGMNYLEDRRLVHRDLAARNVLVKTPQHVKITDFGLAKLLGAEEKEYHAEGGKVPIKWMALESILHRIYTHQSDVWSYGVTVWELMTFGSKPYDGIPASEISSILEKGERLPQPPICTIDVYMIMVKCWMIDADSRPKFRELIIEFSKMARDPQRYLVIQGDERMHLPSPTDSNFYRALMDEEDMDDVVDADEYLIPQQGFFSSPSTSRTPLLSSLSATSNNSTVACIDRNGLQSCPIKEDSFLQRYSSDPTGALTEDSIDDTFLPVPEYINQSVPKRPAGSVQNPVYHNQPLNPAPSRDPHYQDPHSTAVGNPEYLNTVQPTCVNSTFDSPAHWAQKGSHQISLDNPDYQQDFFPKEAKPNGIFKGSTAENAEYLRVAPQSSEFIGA
T5 sequence (P00533 with tags, fused parts or gaps DEL746-750/T790M limits assumed): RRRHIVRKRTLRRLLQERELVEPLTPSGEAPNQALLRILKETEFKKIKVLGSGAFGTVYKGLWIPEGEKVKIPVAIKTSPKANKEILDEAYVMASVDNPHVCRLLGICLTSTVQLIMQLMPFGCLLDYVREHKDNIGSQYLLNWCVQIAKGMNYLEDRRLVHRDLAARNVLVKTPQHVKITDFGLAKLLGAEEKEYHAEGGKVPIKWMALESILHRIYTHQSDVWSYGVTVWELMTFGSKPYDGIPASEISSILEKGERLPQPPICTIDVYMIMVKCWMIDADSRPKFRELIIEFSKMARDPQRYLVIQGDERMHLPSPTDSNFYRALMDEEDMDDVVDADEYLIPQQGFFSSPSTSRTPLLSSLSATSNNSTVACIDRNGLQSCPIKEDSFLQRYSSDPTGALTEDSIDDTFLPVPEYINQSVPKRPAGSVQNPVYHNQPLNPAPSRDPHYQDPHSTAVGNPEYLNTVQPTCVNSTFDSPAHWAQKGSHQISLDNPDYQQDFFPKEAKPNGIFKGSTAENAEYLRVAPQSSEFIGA
T9 sequence (P00533 with tags, fused parts or gaps DEL746-750/T790M/C797S limits assumed): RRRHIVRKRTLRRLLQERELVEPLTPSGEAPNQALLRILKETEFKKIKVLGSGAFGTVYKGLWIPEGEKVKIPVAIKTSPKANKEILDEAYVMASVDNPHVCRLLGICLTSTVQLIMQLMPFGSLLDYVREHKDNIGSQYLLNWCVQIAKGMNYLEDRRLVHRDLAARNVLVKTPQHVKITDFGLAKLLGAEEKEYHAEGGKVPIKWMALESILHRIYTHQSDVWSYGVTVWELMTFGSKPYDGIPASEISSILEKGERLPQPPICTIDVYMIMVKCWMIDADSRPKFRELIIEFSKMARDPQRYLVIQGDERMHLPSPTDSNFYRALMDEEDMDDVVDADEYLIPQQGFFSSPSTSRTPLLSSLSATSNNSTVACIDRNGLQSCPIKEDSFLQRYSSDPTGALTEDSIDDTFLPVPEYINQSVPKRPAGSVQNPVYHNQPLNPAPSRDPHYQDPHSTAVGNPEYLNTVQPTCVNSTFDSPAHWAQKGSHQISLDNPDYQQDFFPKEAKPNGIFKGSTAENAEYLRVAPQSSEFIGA

IC50 [1, 13] [nM] | IC50 [2, 14] [nM] | IC50 [3, 15] [nM] | IC50 [4, 16] [nM] | IC50 [5, 17] [nM] | IC50 [6, 18] [nM] | IC50 [7, 19] [nM] | IC50 [8, 20] [nM] | GI50 [10] [nM] | GI50 [11, 21] [nM] | GI50 [11, 22] [nM] | GI50 [11, 23] [nM] | GI50 [11, 24] [nM] | GI50 [11, 25] [nM] | GI50 [11, 26] [nM] | GI50 [11, 27] [nM] | IC50 [12, 28] [nM] | GI50 [9, 29] [nM] | GI50 ([10]; Homo sapiens, PC-9, 72 h) [nM] | GI50 [11, 30] [nM] | further results | Structure (SMILES)
134 | 4.2 | 3.1 | 2750 | 5.5 | 12 | 33 | 5.9 | 9 | 2 | 2 | 9 | 2 | 2 | 13 | 2 | 3.2 | – | – | – | GI50 ([9]; A-431 cells): 532 nM | Cc1cc2cc(n1)-c1cnn(C)c1OCCN1CC3CCC(C3)(C1)n1c(nc3ccc(N4CCN(C5COC5)CC4)cc31)NC2=O (single isomer, unassigned) [Example B58B]
160 | 3.8 | 4.2 | 2540 | 3.2 | 5.8 | 37 | 7 | – | – | – | – | – | – | – | – | 4.1 | 507 | 22 | 4.8 | GI50 [11, 31]: 1 nM; GI50 [11, 32]: 20 nM; GI50 [11, 33]: 1.2 nM; GI50 [11, 34]: 3.4 nM; GI50 [11, 35]: 18 nM; GI50 [11, 36]: 2.9 nM | Cc1cc2cc(n1)-c1cnn(C)c1OCCC[C@@H](C)Cn1c(nc3ccc4c(c31)CCN(C1COC1)C4)NC2=O [Example B13, (11R)-5,11,30-trimethyl-18-(oxetan-3-yl)-7-oxa-4,5,13,18,24,26,31-heptaazahexacyclo[26.3.1.0^{2,6}.0^{13,25}.0^{14,23}.0^{15,20}]dotriaconta-1(31),2(6),3,14,20,22,24,28(32),29-nonaen-27-one]
34 | 3 | 2.2 | 581 | 4.9 | 7.5 | 8.8 | 4.2 | 8 | 2 | 2 | 7 | 2 | 2 | 12 | 2 | 3.3 | 1790 | – | – | – | Cc1cc2cc(n1)-c1cnn(C)c1OCCN1CC3CCC(C3)(C1)n1c(nc3ccc(N4CC[C@H](N(C)C)C4)cc31)NC2=O (single isomer, unassigned) [Example B41B]
– | – | – | – | – | – | – | – | – | – | – | – | – | – | – | – | – | 3740 | 35 | 7.9 | IC50 ([1]; 1 h, room temperature, read-out: IC50 (nM) @L858R): 189 nM; IC50 ([2]; EGFR Del19-C797S, 1 h, room temperature, read-out: IC50 (nM) @Del19-C797S): 25 nM; IC50 ([3]; EGFR T790M-C797S-L858R, 1 h, room temperature, read-out: IC50 (nM) @T790M- C797S - L858R): 359 nM; IC50 ([4]; EGFR WT, 1 h, room temperature, read-out: IC50 (nM) @WT): 4060 nM; IC50 ([5]; EGFR Del19-T790M, 1 h, room temperature, read-out: IC50 (nM) @Del19-T790M): 18 nM; IC50 ([6]; EGFR Del19, 1 mM ATP, 1 h, room temperature): 29 nM; IC50 ([7]; EGFR L858-C797S, 1 h, room temperature, read-out: IC50 (nM) @L858-C797S): 128 nM; IC50 ([8]; EGFR L858R-T790M, 1 h, room temperature, read-out: IC50 (nM) @L858R-T790M): 582 nM; GI50 [11, 31]: 43 nM; GI50 [11, 32]: 34 nM; GI50 [11, 33]: 21 nM; GI50 [11, 34]: 64 nM; GI50 [11, 35]: 7 nM; GI50 [11, 36]: 30 nM; IC50 ([12]; EGFR T790M-C797S-Del19, 1 mM ATP, 1 h, room temperature, read-out: IC50 (nM) @T790M - C797S - Del19): 15 nM | CN(C)CCCN(C)c1ccc2nc3n(c2c1)C12CCC(CC1)CN(CCOc1c(cnn1C)-c1cc(cn(C)c1=O)C(=O)N3)C2 [Example A125]
